Activity calls are given as the source filed them. The calls are words filed in the database; no cut-off is given here.
Tests used:
HeLa = assay: Cytotoxicity against human HeLa cells incubated for 24 hrs by CCK-8 assay; assay type: functional, cell-based
[1] = biological target: Programmed cell death protein 1/Programmed cell death 1 ligand 1 (Homo sapiens, UniProt Q9NZQ7); assay: Inhibition of PD-1/PD-L1 (unknown origin) protein-protein interaction preincubated for 15 mins followed by PD-1-Eu addition and measured after 90 mins by TR-FRET assay; assay type: protein-complex assay
Klebsiella pneumoniae [2] = assay: Antimicrobial activity against Klebsiella pneumoniae ATCC 13883 assessed as inhibition of microbial growth incubated for 64 hrs by broth-microdilution assay; assay type: functional
Escherichia coli = assay: Antimicrobial activity against Escherichia coli ATCC 8739 assessed as inhibition of microbial growth incubated for 64 hrs by broth-microdilution assay; assay type: functional
Salmonella typhimurium = assay: Antimicrobial activity against Salmonella typhimurium ATCC 14028 assessed as inhibition of microbial growth incubated for 64 hrs by broth-microdilution assay; assay type: functional, Salmonella enterica subsp. enterica serovar Typhimurium; details: Salmonella enterica
Pseudomonas aeruginosa [3] = assay: Antimicrobial activity against Pseudomonas aeruginosa ATCC 9027 assessed as inhibition of microbial growth incubated for 64 hrs by broth-microdilution assay; assay type: functional
Klebsiella pneumoniae [4] = assay: Antimicrobial activity against Klebsiella pneumoniae ATCC 13883 assessed as inhibition zone; assay type: functional
A549 = assay: Cytotoxicity against human A549 cells incubated for 24 hrs by CCK-8 assay; assay type: functional, cell-based; details: A549, 24 h
Pseudomonas aeruginosa [5] = assay: Antimicrobial activity against Pseudomonas aeruginosa ATCC 9027 assessed as inhibition zone; assay type: functional; details: time 64 hrs
[6] = biological target: T1, UDP-3-O-acyl-N-acetylglucosamine deacetylase (Escherichia coli K-12, UniProt P0A725); assay: Inhibition of Escherichia coli LpxC
T1 sequence (P0A725 whole entry): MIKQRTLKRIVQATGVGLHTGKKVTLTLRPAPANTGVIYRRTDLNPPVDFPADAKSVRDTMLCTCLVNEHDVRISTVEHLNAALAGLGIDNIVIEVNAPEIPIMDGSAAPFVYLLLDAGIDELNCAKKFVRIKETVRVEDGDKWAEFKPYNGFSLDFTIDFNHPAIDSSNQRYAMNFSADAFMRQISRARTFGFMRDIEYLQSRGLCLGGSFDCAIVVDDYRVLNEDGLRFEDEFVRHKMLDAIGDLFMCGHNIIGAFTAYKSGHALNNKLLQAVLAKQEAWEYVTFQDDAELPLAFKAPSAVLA

[7] = biological target: T1, UDP-3-O-acyl-N-acetylglucosamine deacetylase; assay: Binding affinity to Escherichia coli LpxC assessed as dissociation constant by SPR analysis
[8] = Binding affinity to PD-L1 (unknown origin) assessed as dissociation constant by SPR analysis; parameters: species or system Homo sapiens
[9] = biological target: Programmed cell death 1 ligand 1 (Homo sapiens) (UniProt Q9NZQ7); assay: Binding affinity to PD-L1 (unknown origin) assessed as association constant at equilibrium by ITC analysis
[10] = biological target: Programmed cell death 1 ligand 1 (Homo sapiens) (UniProt Q9NZQ7); assay: Binding affinity to PD-L1 (unknown origin) assessed as Change in enthalpy by ITC analysis
Klebsiella pneumoniae [11] = assay: Induction of intracellular ROS accumulation in Klebsiella pneumoniae ATCC 13883 incubated for 12 hrs by fluorescence microscopic analysis; assay type: functional, organism-based
Klebsiella pneumoniae [12] = assay: Antimicrobial activity against Klebsiella pneumoniae ATCC 13883 assessed as increase in percentage of bacterial cells by flow cytometry analysis; assay type: functional, organism-based
Klebsiella pneumoniae [13] = assay: Bactericidal activity against Klebsiella pneumoniae ATCC 13883 assessed as reduction in survival rate by colony counting method; assay type: functional
Klebsiella pneumoniae [14] = assay: Induction of morphological changes in Klebsiella pneumoniae ATCC 13883 assessed as reduction in cell membrane thickness measured for 24 hrs by transmission electron microscopy analysis; assay type: functional, organism-based
Klebsiella pneumoniae [15] = assay: Induction of morphological changes in Klebsiella pneumoniae ATCC 13883 assessed as reduction in cell wall thickness measured for 24 hrs by transmission electron microscopy analysis; assay type: functional, organism-based
Klebsiella pneumoniae [16] = assay: Induction of morphological changes in Klebsiella pneumoniae ATCC 13883 assessed as leakage in cellular contents measured for 48 hrs by transmission electron microscopy analysis; assay type: functional, organism-based
Klebsiella pneumoniae [17] = assay: Induction of morphological changes in Klebsiella pneumoniae ATCC 13883 assessed as leakage in cellular contents measured for 96 hrs by transmission electron microscopy analysis; assay type: functional, organism-based
Klebsiella pneumoniae [18] = assay: Antibacterial activity against Klebsiella pneumoniae ATCC 13883 infected in Kunming mouse model measured after 8 hrs; assay type: functional, organism-based
[19] = Toxicity in Kunming mouse assessed as side effect at 2 mg/kg, iv; assay type: organism-based; details: in vivo
[20] = Toxicity in Kunming mouse assessed as body weight loss at 2 mg/kg, iv; assay type: organism-based; details: in vivo
Klebsiella pneumoniae [21] = assay: Antibacterial activity against Klebsiella pneumoniae ATCC 13883 infected in Kunming mouse model assessed as reduction in alveolar space in lung at 2 mg/kg, iv by H and E staining based analysis; assay type: functional, organism-based
Klebsiella pneumoniae [22] = assay: Antibacterial activity against Klebsiella pneumoniae ATCC 13883 infected in Kunming mouse model assessed as reduction in bacterial proliferation at 2 mg/kg, iv; assay type: functional, organism-based
Klebsiella pneumoniae [23] = assay: Downregulation of PD-L1 expression in Klebsiella pneumoniae ATCC 13883 by Western blot analysis; assay type: functional
Klebsiella pneumoniae [24] = assay: Downregulation of PD-1 expression in Klebsiella pneumoniae ATCC 13883 by Western blot analysis; assay type: functional
Klebsiella pneumoniae [25] = assay: Downregulation of MMP9 expression in Klebsiella pneumoniae ATCC 13883 by Western blot analysis; assay type: functional
Klebsiella pneumoniae [26] = assay: Downregulation of NLRP3 expression in Klebsiella pneumoniae ATCC 13883 by Western blot analysis; assay type: functional
Klebsiella pneumoniae [27] = assay: Downregulation of IL-2 expression in Klebsiella pneumoniae ATCC 13883 by Western blot analysis; assay type: functional
Klebsiella pneumoniae [28] = assay: Downregulation of IFN-gamma expression in Klebsiella pneumoniae ATCC 13883 by Western blot analysis; assay type: functional
Klebsiella pneumoniae [29] = assay: Downregulation of NF-kappaB expression in Klebsiella pneumoniae ATCC 13883 by Western blot analysis; assay type: functional
Klebsiella pneumoniae [30] = assay: Downregulation of PD-L1 expression in Klebsiella pneumoniae ATCC 13883 by immunohistochemistry analysis; assay type: functional
Klebsiella pneumoniae [31] = assay: Downregulation of IL-2 expression in Klebsiella pneumoniae ATCC 13883 by immunohistochemistry analysis; assay type: functional
Klebsiella pneumoniae [32] = assay: Downregulation of IFN-gamma expression in Klebsiella pneumoniae ATCC 13883 by immunohistochemistry analysis; assay type: functional
[33] = Toxicity in Kunming mouse assessed as lung damage at 2 mg/kg, iv by H and E staining based analysis; assay type: organism-based; details: in vivo
[34] = Toxicity in Kunming mouse assessed as lung damage at 2 mg/kg, iv by masson staining based analysis; assay type: organism-based; details: in vivo
Klebsiella pneumoniae [35] = assay: Antibacterial activity against Klebsiella pneumoniae ATCC 13883 infected in Kunming mouse model assessed as organised collagen fibers in skin tissue at 2 mg/kg, iv by Masson's trichome staining based analysis; assay type: functional, organism-based
[36] = Toxicity in Kunming mouse assessed as change in AST level at 2 mg/kg, iv (reference value: 91.5 +/- 7.2 IU/L); assay type: organism-based; details: in vivo
[37] = Toxicity in Kunming mouse assessed as change in ALT level at 2 mg/kg, iv (reference value: 54.8 +/- 5.2 IU/L); assay type: organism-based; details: in vivo
[38] = Toxicity in Kunming mouse assessed as change in CRE level at 2 mg/kg, iv (reference value: 16.7 +/- 1.6 micromol/L); assay type: organism-based; details: in vivo
[39] = Toxicity in Kunming mouse assessed as change in BUN level at 2 mg/kg, iv (reference value: 11.2 +/- 2 mmol/L); assay type: organism-based; details: in vivo
[40] = Initial plasma concentration in rat at 2 mg/kg, iv measured upto 24 hrs by LC-MS/MS analysis; assay type: ADME, organism-based; details: plasma
[41] = Clearance in rat at 2 mg/kg, iv measured upto 24 hrs by LC-MS/MS analysis; assay type: ADME, organism-based; details: in vivo
[42] = Volume of distribution at steady state in rat at 2 mg/kg, iv measured upto 24 hrs by LC-MS/MS analysis; assay type: ADME, organism-based; details: in vivo, read-out: Vdss
[43] = Half life in rat at 2 mg/kg, iv measured upto 24 hrs by LC-MS/MS analysis; assay type: ADME, organism-based; details: in vivo
[44] = AUC (0 to t) in rat at 2 mg/kg, iv measured upto 24 hrs by LC-MS/MS analysis; assay type: ADME, organism-based; details: in vivo

Chain of Programmed cell death 1 ligand 1 (Homo sapiens) (Q9NZQ7 whole entry): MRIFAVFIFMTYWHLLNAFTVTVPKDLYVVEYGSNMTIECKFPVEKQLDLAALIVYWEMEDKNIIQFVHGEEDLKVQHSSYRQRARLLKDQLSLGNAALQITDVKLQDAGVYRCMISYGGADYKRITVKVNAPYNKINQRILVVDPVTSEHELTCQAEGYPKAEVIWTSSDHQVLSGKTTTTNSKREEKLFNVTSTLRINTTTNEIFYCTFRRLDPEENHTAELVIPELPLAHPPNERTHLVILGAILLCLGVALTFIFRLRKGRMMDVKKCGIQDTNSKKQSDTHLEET
Chain of Programmed cell death protein 1/Programmed cell death 1 ligand 1 (Q15116 whole entry): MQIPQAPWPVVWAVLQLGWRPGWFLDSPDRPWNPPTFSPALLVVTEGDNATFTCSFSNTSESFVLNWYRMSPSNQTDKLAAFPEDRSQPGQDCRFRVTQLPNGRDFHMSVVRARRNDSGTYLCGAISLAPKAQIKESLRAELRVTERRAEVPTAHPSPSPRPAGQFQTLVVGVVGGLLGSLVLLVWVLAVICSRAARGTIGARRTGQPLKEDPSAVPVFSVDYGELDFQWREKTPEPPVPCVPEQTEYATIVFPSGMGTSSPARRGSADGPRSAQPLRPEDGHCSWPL
Chain of Programmed cell death protein 1/Programmed cell death 1 ligand 1 (Q9NZQ7 whole entry): as the sequence (Q9NZQ7 whole entry) above

SMILES: Cc1c(COc2cccc(CNC(C(=O)NO)C(C)O)c2)cccc1-c1ccccc1 (stereo not drawn)
- IC50 (HeLa): > 50000 nM
- IC50 [1]: 81 nM
- MIC50 (Klebsiella pneumoniae [2]): 0.25 µg/mL
- MIC50 (Escherichia coli): 0.5 µg/mL
- MIC50 (Salmonella typhimurium): 0.5 µg/mL
- MIC50 (Pseudomonas aeruginosa [3]): 0.5 µg/mL
- inhibition zone (IZ) (Klebsiella pneumoniae [4]): 14.7 mm
- IC50 (A549): > 50000 nM
- inhibition zone (IZ) (Pseudomonas aeruginosa [5]): 14.2 mm
- IC50 [6]: 5200 nM
- Kd [7]: 0.357 nM
- Kd [8]: 0.523 nM
- Ka [9]: 6.04 10^5/M
- deltaH [10]: 1.79 kcal/mol
- Activity (Klebsiella pneumoniae [11]): Active
- Activity (Klebsiella pneumoniae [12]): Active
- Activity (Klebsiella pneumoniae [13]): Active
- Activity (Klebsiella pneumoniae [14]): Active
- Activity (Klebsiella pneumoniae [15]): Active
- Activity (Klebsiella pneumoniae [16]): Active
- Activity (Klebsiella pneumoniae [17]): Active
- Activity (Klebsiella pneumoniae [18]): Active
- Activity [19]: Non-toxic
- Activity [20]: Non-toxic
- Activity (Klebsiella pneumoniae [21]): Active
- Activity (Klebsiella pneumoniae [22]): Active
- Activity (Klebsiella pneumoniae [23]): Active
- Activity (Klebsiella pneumoniae [24]): Active
- Activity (Klebsiella pneumoniae [25]): Active
- Activity (Klebsiella pneumoniae [26]): Active
- Activity (Klebsiella pneumoniae [27]): Active
- Activity (Klebsiella pneumoniae [28]): Active
- Activity (Klebsiella pneumoniae [29]): Active
- Activity (Klebsiella pneumoniae [30]): Active
- Activity (Klebsiella pneumoniae [31]): Active
- Activity (Klebsiella pneumoniae [32]): Active
- Activity [33]: Non-toxic
- Activity [34]: Non-toxic
- Activity (Klebsiella pneumoniae [35]): Active
- Activity [36]: 104.2 IU/L
- Activity [37]: 34.5 IU/L
- Activity [38]: 12.5 µmol/L
- Activity [39]: 8.6 mmol/L
- C0 at 24 h [40]: 649 ng/mL
- clearance [41]: 63.7 mL/min/kg
- Vd [42]: 5.71 L/kg
- half-life [43]: 2.39 h
- AUC(0-t) at 24 h [44]: 431 ng·h/mL
